Tests used:
[1] = test system: 253J-BV cells; test: cell cycle analysis (PI, flow cytometry); type: cell-based, human; conditions: 48 hr, RPMI 1640 with 0.5% FBS
Experimental: The cells grown in 6-well plate were stimulated with 5 μM and 10 μM LY255283, 1 μM U75302 for 48 h in RPMI 1640 containing 0.5% FBS. The cells which were collected by brief trypsinization were fixed overnight with 70% ethanol at 4° C. The cells were resuspended in PBS containing RNase A (100 μg/ml) and incubated for 30 min at 37° C. The cells were stained with propidium iodide (50 μg/ml) (Sigma). Acquisition and analysis was performed by FACS using Cell Quest Alias software (BD Bioscience). […] Cells were treated with BLT antagonist for 48 hours and the cell cycle population was measured by flow cytometry. In brief, cells were plated in 6 well plate and then treated with LY255283, U75302 for 48 hr. At the end of the treatment, the cells were harvested and then centrifuged. The cells fixed in ice-cold 70% ethanol for 24 hr and centrifuged. The pellet were resuspended in 0.5 ml phosphate-buffered saline (PBS) and incubated with Pl 1 mg/ml treatment for 15 min.

[2] = test system: 253J-BV cell line; test: Western blot of apoptotic proteins (PARP, Caspase-9, Bax); type: cell-based, human; conditions: 48 hr
Experimental: Cells were washed with cold PBS and cells were scraped into lysis buffer [20 mM Tris-HCl (pH 7.5), 15 OmM NaCl, 0.5% NP-40, 5 mM EDTA, 1% triton X-100 added protease inhibitors] at 4° C. Harvested protein samples were heated at 95° C. for 5 min and then subjected to SDS-PAGE on acrylamide gels, followed by transfer to polyvinylidene difluoride membranes for 90 min at 100 V. The membranes were blocked for 1 h with Tris-buffered saline (TBS) containing 0.05% (vol/vol) Tween 20 plus 5% (wt/vol) nonfat dry milk and then incubated with appropriate antibodies (PARP, 1:2000 dilution, Caspase-9, 1:2000 dilution, Bax 1:2000 dilution, actin, 1:3000 dilution) in 5% nonfat milk overnight at 4° C. Then membrane bound protein-antibody complex incubated for 2 hr with HRP-conjugated secondary antibody before development with an enhanced chemiluminescence kit (Amersham Biosciences, UK). The poly ADP-ribose polymerase (PARP) cleavage have been well established as important indices of apoptosis.

[3] = test system: normal IMR-90 cells; test: cell growth assay (trypan blue exclusion); type: cell-based; conditions: LY255283 5, 10 μM; U75302 0.5, 1 μM; 24, 48, 72 hr
Experimental: To investigate the effect of BLT2 antagonist, LY255283 and BLT1 antagonist, U75302 on growth of breast cancer, breast cancer cell line, T47D (ER+), MDA-MB-468 (ER−), MDA-MB-453 (ER−) and normal IMR-90 cells were used. Cells were treated with LY255283 and U75302 in a dose-dependent manner and analyzed for cell number using the trypan blue dye exclusion method. Cells were plated at a density of 0.5×10^5 or 5×10^5 cells/well on 12-well plate. After 24 h, cells were incubated in media containing 0.5% serum for 3 hr. Then, cells were treated with U75302 (0.5, 1 μM), LY255283 (5, 10 μM) and incubated at 37° C. for indicated time (24, 48, and 72 hr). To measure the growth of cell, the treated cells were then trypsinized at each time point, and counted by the trypan-blue exclusion method

[4] = test system: MDA-MB-468 cells; type: cell-based, human; conditions: 48 h
Experimental: Cells were plated a density of 2×10^6 cells/plate in 100-mm plate. After 24 hr, cells incubated in media containing serum-free for 3 hr. Then, cells were treated with U75302 (0.5, 1 μM), LY255283 (5, 10 μM) and incubated at 37° C. for 48 h. Both attached and detached cells were collected and resuspended in a lysis buffer (20 mM Tris/HCl, pH 8.0, 0.1 mM EDTA, 1% SDS, and 0.5 mg/ml proteinase K) and then incubated at 50° C. for overnight. DNA was extracted with phenol/chloroform.

[5] = test system: Rat2-HO6 cells; test: experimental metastasis assay, lung metastasis driven by H-Ras^V12; type: in vivo, nude mice; conditions: intraperitoneal 3 and 5 days after cell injection, 21 days
Experimental: All experimental animals used in this study were treated according to guidelines approved by the Institutional Animal Care and Use Committee of Korea University. Female nude mice (Charles River, Wilmington, Mass.), four-weeks-old at the time of injection, were used in the experimental metastasis assay. Rat-2, Rat2-HO6, and Rat2-BLT2 cells (5×10^5 cells) were prepared for injection from cultures in logarithmic growth at the time of harvest. The cells were briefly treated with 0.025% trypsin and 0.1% EDTA in Hanks' balanced salt solution and quickly removed from trypsin by centrifugation, resuspended in saline containing LTB4, and injected within 1 hr in 0.1 ml into the lateral tail vein with a 26-gauge needle. For inhibitor experiments, U75302 and LY255283 (0.25 mg/kg for BLT1 antagonist and 2.5 mg/kg for BLT2 antagonist) was injected intraperitoneal ˜3 and 5 days after injection of cells that were pretreated with inhibitors. […]
In vivo lung metastasis driven by H-Ras^V12 (panel B of FIG. 2a) or BLT2 (panel C of FIG. 2a) was reduced by BLT2 inhibition (LY255283) based on the macroscopic and histologic appearance of lung. […] Mice were euthanized 21 days after cell injection, and the number of lung metastasis nodules and weight of lung was analyzed in each group. […] Metastasis survival was analyzed in Kaplan-Meyer plots.

Question: Which results are given for CCc1cc(C(C)=O)c(O)cc1OCCCCCC(C)(C)c1nnn[nH]1 [LY255283, 1-[5-ethyl-2-hydroxy-4-[[6-methyl-6-(1H-tetrazol-5-yl)heptyl]oxy]phenyl]-ethanone]?
Answer: cell cycle [1]: arresting cell cycle at sub-G1 in dose dependent manner; pro-apoptotic protein Bax level ([2]; 10 μM): significant increased; apoptosis induction (PARP cleavage) [2]: Apoptosis induction was observed; pro-caspase 9 level [2]: reduction of pro-caspase 9; growth of normal IMR-90 cells [3]: did not affect; DNA fragmentation [4]: laddering pattern characteristic of apoptosis; lung metastasis driven by H-Ras^V12 [5]: significantly reduced

Question: CCCCC/C=C\C[C@@H](O)/C=C/c1cccc(C[C@@H](O)CCCCO)n1 [U75302] was tested. Which cell cycle [1] did it give?
Answer: The cell cycle was “not effect”.

Question: And the “level of protein (Western blot) compared with control” value [2]?
Answer: The value was “no significant change”.

Question: What about the “growth of normal IMR-90 cells” value [3] of the same molecule?
Answer: Its value is “had no effect on growth”.

Question: And the DNA fragmentation [4]?
Answer: Its DNA fragmentation is “did not induce DNA fragmentation”.

Question: What about the “lung metastasis driven by H-Ras^V12” value [5] of the same molecule?
Answer: Its value is “caused no suppression on metastasis”.

Source: patent US8518889B2, “Method of treating cancer with antibodies against long-form leukotriene B4 receptor BLT2” (Korea University Research & Business Foundation, priority 2007, dated 2013)
